Experimental data as given in ChEMBL document CHEMBL1201862, “PubChem BioAssay data set” (2004).
Calls of active or inactive are those of the source.

What was measured:
[1] = biological target: T1, Corticotropin-releasing factor receptor 2/Corticotropin-releasing factor-binding protein (Homo sapiens, UniProt P24387+Q13324); experiment: activators of CRF receptor 2 with binding protein – uHTS hits, confirmation (AID 602473); type: functional; conditions: read-out: EC50_Mean
T1 sequence (Q13324 whole entry): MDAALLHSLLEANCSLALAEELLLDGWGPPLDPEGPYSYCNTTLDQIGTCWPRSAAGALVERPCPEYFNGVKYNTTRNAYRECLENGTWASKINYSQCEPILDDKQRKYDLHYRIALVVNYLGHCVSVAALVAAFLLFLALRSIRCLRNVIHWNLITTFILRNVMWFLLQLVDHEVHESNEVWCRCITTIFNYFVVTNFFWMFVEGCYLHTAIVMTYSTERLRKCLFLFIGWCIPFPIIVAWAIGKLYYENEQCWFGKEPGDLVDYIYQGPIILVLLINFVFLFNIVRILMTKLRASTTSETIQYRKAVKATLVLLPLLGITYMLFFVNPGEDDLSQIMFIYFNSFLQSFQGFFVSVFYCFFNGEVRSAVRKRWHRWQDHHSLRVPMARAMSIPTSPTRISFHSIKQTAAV
T1 sequence (P24387 whole entry): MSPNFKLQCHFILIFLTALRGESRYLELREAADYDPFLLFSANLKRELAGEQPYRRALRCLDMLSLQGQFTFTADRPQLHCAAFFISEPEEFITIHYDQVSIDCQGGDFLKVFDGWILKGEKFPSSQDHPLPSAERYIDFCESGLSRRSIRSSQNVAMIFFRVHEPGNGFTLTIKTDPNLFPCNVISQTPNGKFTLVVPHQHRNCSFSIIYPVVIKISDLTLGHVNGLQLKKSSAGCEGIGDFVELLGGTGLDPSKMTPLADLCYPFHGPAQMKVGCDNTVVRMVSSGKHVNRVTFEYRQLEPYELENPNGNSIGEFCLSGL

[2] = growth induction of Burl-1 ts yeast mutant, dose response, counter-screen for SUMOylation pathway inhibitor project, whole organism, S. cerevisiae, luminescence (AID 463199); type: functional
[3] = biological target: T1, Corticotropin-releasing factor receptor 2/Corticotropin-releasing factor-binding protein; experiment: Dose Response confirmation of uHTS hits for small molecule antagonists of the CRF-binding protein and CRF-R2 receptor complex.; type: functional; conditions: read-out: IC50_Mean
[4] = cytotoxicity toward NIH3T3 fibroblasts, dose response, counter-screen, cell-based, ATP luminescence, mouse fibroblasts (AID 2010); type: functional;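 note: cells exposed to compound for about 90 hours before reading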
[5] = biological target: T2, Alkaline phosphatase, tissue-nonspecific isozyme (Homo sapiens, UniProt P05186); experiment: inhibition of tissue-nonspecific alkaline phosphatase – biochemical, dose response (AID 488882); type: functional
T2 sequence (P05186 whole entry): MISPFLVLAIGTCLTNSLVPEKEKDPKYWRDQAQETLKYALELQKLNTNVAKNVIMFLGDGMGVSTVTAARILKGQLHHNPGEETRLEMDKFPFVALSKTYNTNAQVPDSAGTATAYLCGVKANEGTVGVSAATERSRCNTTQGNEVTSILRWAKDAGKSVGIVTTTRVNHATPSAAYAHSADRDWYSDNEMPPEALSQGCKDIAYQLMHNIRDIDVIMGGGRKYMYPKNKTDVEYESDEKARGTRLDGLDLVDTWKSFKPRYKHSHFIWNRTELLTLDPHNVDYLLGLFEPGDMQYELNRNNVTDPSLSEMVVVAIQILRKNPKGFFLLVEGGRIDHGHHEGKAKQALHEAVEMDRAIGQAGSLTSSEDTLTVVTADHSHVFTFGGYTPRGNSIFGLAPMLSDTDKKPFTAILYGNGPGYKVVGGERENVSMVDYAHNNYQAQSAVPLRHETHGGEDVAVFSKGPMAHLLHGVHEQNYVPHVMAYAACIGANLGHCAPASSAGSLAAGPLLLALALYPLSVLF

[6] = tested on: INS1; experiment: beta cell apoptosis inhibitors, cytokine rescue, dose response, luminescence, retest (AID 449756); type: functional, cell-based; conditions: Rattus norvegicus;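 note: cell death triggered by IL-1 beta plus TNF-alpha plus IFN-gamma mixture; protective hits raise ATP signal compared with cytokine alone wells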
[7] = biological target: T3, Zinc finger protein mex-5 (Caenorhabditis elegans, UniProt Q9XUB2); experiment: MEX-5/TCR-2 RNA interaction inhibitors, dose response, biochemical, C. elegans, fluorescence polarization (AID 1960)
T3 sequence (Q9XUB2 whole entry): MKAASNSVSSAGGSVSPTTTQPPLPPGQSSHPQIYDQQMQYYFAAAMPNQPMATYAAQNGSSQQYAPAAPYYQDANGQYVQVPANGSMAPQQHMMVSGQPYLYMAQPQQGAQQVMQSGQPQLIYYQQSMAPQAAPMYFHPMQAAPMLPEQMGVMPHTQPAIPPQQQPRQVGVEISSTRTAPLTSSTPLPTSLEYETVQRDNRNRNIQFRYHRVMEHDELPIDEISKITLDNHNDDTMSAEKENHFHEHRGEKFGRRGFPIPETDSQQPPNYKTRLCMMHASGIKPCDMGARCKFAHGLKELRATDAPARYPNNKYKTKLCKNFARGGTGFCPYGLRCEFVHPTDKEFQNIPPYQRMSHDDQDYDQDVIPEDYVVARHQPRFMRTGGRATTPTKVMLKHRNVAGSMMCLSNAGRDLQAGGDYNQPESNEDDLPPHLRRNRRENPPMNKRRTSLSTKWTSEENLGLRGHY

[8] = Counterscreen for activators of the function of SWI/SNF related, matrix associated, actin dependent regulator of chromatin, subfamily a, member 2 (SMARCA2, BRM): Luminescence-based cell-based high throughput dose response assay to identify non-selective compounds using the VP16 reporter assay.; type: functional
[9] = biological target: T4, Intestinal-type alkaline phosphatase (Homo sapiens, UniProt P09923); experiment: Dose Response confirmation of uHTS hits from a small molecule inhibitors of human intestinal alkaline phosphatase via a luminescent assay. [Related pubchem assays (depositor defined):AID2544, AID2574]; type: functional
T4 sequence (P09923 whole entry, the tested form may be a part): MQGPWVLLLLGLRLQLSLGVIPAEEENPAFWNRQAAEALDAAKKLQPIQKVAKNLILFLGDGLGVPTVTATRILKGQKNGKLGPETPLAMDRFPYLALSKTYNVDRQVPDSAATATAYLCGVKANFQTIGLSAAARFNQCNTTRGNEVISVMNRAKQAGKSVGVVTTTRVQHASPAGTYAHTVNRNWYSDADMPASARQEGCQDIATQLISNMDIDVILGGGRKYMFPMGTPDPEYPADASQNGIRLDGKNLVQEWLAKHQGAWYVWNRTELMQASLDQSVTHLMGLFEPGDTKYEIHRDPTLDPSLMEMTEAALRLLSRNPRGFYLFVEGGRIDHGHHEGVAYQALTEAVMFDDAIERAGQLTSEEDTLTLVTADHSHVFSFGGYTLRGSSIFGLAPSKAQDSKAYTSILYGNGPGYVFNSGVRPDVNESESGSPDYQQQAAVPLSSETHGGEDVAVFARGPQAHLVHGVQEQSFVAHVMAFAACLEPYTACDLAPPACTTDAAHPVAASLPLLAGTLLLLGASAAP

[10] = biological target: T5, RNA-binding protein pos-1 (Caenorhabditis elegans, UniProt G5EF15); experiment: inhibitors of POS-1/mex-3 RNA binding, dose response, biochemical, fluorescence polarization (AID 1964);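 note: purified POS-1 fused to maltose binding protein made in E. coli; potency of compounds blocking POS-1 binding to fluorescent RNA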
T5 sequence (G5EF15 whole entry): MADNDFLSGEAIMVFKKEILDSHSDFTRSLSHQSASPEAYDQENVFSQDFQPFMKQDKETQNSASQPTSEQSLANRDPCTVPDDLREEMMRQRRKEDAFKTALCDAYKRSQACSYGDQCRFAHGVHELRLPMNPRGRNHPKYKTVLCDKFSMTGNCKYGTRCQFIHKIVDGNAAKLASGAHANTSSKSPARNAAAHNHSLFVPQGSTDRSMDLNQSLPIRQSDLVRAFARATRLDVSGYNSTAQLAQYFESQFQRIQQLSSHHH

[11] = biological target: T4, Intestinal-type alkaline phosphatase; experiment: human IAP inhibitors, dose response, biochemical, luminescent, uHTS hits, set 2 (AID 488793); type: functional
[12] = biological target: SWI/SNF-related matrix-associated actin-dependent regulator of chromatin subfamily A member 2 (Homo sapiens, UniProt P51531); experiment: Luminescence-based cell-based high throughput dose response assay to identify activators of the function of SWI/SNF related, matrix associated, actin dependent regulator of chromatin, subfamily a, member 2 (SMARCA2, BRM).; type: functional
Sequence of SWI/SNF-related matrix-associated actin-dependent regulator of chromatin subfamily A member 2 (P51531 whole entry): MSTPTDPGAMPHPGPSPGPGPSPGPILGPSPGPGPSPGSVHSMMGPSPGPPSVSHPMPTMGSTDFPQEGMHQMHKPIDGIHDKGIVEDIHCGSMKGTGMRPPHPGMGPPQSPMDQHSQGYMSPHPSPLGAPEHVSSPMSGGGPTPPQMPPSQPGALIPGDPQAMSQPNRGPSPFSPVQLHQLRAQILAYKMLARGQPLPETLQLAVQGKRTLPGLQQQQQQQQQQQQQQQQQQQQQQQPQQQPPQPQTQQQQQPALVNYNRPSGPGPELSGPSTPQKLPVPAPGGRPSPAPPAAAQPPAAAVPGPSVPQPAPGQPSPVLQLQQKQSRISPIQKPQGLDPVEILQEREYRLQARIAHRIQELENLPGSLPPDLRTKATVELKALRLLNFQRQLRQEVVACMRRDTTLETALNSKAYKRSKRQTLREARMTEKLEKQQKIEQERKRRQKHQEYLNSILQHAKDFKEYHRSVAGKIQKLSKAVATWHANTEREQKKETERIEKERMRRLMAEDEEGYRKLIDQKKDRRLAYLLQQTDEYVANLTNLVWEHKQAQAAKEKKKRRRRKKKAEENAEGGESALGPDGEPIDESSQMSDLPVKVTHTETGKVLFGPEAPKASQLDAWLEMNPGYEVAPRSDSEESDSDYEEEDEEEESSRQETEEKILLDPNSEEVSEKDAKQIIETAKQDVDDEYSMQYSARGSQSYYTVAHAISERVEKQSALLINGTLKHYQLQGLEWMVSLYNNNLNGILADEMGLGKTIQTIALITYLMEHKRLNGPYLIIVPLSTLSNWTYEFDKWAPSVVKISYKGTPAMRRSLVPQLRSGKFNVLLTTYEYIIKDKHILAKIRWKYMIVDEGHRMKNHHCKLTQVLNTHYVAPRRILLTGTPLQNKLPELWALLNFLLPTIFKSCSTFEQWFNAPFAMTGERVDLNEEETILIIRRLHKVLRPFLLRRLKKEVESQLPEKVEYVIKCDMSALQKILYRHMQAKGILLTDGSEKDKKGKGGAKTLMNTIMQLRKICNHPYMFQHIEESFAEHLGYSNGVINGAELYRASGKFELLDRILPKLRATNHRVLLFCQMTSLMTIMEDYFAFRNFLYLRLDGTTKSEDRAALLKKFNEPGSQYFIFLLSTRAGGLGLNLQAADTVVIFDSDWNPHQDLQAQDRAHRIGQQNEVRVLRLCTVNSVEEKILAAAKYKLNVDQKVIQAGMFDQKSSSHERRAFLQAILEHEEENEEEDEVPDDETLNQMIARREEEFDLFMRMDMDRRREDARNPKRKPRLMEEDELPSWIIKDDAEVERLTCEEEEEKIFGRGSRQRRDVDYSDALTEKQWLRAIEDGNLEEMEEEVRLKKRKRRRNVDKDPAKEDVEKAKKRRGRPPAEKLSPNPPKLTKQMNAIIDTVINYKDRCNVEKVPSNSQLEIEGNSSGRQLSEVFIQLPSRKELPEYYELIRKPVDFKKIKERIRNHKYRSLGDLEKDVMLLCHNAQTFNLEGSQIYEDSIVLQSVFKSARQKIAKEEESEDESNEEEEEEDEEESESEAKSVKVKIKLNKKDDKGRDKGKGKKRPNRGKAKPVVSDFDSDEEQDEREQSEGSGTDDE

[13] = inhibitors of intracellular T. cruzi replication, confirmation, NIH3T3 host cells, beta-gal luminescence (AID 2044); type: functional, cell-based;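 note: intracellular parasites grown in NIH/3T3 mouse fibroblasts as host cells; luminescent beta-galactosidase reporter signal from transgenic T. cruzi replicating inside host cells; inhibitors lower the luminescence signal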
[14] = biological target: Intestinal-type alkaline phosphatase (Mus musculus, UniProt P24822); experiment: PubChem AID 488874; type: functional
Sequence of Intestinal-type alkaline phosphatase (Mus musculus, UniProt P24822) (P24822 whole entry): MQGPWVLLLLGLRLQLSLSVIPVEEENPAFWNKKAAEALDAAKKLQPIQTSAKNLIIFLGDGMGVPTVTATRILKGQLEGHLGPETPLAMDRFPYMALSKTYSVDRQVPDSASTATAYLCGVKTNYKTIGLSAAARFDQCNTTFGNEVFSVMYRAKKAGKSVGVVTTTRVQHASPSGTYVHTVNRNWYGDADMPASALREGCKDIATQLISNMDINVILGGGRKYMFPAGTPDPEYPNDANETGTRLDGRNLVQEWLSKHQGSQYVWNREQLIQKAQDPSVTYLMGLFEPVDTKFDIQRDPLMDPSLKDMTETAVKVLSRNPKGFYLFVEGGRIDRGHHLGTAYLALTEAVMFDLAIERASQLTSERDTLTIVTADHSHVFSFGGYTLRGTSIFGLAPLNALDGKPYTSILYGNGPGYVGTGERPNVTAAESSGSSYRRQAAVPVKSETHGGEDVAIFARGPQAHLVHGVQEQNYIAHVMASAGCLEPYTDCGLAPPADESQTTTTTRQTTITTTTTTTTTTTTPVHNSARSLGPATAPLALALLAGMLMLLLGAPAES

[15] = biological target: T6, DNA repair protein RAD52 homolog (Homo sapiens, UniProt P43351); type: functional, biochemical
T6 sequence (P43351 whole entry): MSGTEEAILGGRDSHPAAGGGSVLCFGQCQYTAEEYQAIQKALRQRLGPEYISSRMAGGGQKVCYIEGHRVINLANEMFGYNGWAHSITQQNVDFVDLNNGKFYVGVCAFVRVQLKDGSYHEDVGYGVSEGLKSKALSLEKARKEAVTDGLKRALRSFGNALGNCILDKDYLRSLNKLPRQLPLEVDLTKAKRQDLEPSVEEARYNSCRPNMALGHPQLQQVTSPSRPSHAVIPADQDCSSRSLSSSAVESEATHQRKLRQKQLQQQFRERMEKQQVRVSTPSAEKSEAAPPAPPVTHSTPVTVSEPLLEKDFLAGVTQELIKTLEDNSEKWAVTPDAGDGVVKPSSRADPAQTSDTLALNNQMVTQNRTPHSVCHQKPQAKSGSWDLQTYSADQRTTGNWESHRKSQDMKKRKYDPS

[16] = biological target: T7, DNA repair and recombination protein RAD54-like (Homo sapiens, UniProt Q92698); experiment: inhibitors of human RAD54 branch migration, confirmation, biochemical, fluorescence, cherry-picked samples, dose series (AID 651657); type: functional
T7 sequence (Q92698 whole entry): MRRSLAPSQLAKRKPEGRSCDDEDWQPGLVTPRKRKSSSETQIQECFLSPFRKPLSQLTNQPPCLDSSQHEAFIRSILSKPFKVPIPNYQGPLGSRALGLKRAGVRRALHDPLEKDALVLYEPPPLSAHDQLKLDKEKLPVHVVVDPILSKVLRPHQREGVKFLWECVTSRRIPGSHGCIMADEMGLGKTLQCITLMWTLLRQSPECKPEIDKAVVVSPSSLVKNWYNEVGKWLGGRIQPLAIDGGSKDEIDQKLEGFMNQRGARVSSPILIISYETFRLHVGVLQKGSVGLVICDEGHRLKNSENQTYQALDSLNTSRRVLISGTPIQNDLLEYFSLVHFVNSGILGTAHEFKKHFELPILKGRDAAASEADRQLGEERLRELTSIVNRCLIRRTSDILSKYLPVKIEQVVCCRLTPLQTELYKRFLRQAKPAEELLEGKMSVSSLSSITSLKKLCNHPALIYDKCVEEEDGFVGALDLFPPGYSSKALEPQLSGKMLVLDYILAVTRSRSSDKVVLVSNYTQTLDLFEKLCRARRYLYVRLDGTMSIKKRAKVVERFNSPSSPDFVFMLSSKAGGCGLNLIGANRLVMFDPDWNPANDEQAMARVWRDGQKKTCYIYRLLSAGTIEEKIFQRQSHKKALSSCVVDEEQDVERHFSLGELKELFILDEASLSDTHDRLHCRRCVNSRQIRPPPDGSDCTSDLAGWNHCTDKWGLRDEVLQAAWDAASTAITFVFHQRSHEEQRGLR

[17] = tested on: Candida albicans; experiment: growth inhibition of resistant C. albicans, dose response, CaCi-8, fluconazole, Alamar Blue, dry powder (AID 488807); type: functional, organism-based
[18] = biological target: CAAX prenyl protease 1 (Saccharomyces cerevisiae S288c, UniProt P47154); experiment: Ste24 protease inhibitors, dose response, biochemical, S. cerevisiae, plate reader, cherry-pick (AID 488815)
Sequence of CAAX prenyl protease 1 (P47154 whole entry): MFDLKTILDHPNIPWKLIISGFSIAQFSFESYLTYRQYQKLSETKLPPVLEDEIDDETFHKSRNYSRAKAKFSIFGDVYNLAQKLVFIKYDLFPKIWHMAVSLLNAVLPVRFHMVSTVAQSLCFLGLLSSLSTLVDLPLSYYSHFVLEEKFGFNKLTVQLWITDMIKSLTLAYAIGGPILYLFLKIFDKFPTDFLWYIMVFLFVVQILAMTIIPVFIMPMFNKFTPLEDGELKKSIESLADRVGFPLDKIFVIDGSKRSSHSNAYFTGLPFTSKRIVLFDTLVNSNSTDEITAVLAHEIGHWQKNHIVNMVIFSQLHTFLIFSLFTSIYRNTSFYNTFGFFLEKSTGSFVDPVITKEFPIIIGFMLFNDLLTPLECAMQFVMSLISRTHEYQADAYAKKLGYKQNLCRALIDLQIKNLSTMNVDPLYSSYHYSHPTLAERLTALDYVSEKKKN

[19] = biological target: T8, CAAX prenyl protease 2 (Saccharomyces cerevisiae S288c, UniProt Q03530); type: biochemical
T8 sequence (Q03530 whole entry): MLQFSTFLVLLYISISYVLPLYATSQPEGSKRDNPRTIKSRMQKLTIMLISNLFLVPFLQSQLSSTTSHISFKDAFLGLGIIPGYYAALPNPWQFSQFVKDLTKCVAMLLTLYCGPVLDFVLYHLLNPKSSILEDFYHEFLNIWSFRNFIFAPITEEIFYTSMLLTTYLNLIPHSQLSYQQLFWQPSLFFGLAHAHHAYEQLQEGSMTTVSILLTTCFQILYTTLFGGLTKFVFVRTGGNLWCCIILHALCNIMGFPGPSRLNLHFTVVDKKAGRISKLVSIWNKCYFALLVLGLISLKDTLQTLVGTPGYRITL

[20] = biological target: Hepatocyte nuclear factor 4-alpha (Homo sapiens, UniProt P41235); type: functional, cell-based;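 note: biochemical luminescence-based dose-response counterscreen measuring inhibition of HNF4 dimerization, run alongside a screen for blockers of ABHD5–perilipin-5 interaction; split luciferase complementation of HNF4 fusion proteins in cell lysate measuring dimerization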
Sequence of Hepatocyte nuclear factor 4-alpha (P41235 whole entry, the tested form may be a part): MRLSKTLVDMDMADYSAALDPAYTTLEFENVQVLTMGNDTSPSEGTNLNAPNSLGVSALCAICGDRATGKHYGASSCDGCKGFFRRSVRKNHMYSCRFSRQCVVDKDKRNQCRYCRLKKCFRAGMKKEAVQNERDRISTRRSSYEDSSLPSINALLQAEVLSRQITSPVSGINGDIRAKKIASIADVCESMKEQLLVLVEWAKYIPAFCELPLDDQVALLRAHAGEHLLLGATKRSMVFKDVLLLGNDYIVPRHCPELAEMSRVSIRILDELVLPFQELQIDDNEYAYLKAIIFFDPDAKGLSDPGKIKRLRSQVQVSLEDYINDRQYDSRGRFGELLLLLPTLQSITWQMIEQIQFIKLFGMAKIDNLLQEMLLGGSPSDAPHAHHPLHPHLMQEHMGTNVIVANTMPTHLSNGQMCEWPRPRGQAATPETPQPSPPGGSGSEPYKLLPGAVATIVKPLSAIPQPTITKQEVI

[21] = biological target: T9, Ubiquitin-conjugating enzyme E2 N (Homo sapiens, UniProt P61088); type: functional;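 note: Dose-response confirmation in a TR-FRET assay detecting UBC13-driven polyubiquitin chain formation, inhibition measured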
T9 sequence (P61088 whole entry): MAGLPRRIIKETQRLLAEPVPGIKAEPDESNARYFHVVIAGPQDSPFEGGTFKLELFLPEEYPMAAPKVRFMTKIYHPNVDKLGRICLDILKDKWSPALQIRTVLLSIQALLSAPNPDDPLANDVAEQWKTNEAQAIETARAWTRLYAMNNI

[22] = biological target: T10, Cytochrome P450 1A2 (Homo sapiens, UniProt P05177);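 note: PubChem cytochrome P450 panel assay, CYP1A2 panel member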
T10 sequence (P05177 whole entry): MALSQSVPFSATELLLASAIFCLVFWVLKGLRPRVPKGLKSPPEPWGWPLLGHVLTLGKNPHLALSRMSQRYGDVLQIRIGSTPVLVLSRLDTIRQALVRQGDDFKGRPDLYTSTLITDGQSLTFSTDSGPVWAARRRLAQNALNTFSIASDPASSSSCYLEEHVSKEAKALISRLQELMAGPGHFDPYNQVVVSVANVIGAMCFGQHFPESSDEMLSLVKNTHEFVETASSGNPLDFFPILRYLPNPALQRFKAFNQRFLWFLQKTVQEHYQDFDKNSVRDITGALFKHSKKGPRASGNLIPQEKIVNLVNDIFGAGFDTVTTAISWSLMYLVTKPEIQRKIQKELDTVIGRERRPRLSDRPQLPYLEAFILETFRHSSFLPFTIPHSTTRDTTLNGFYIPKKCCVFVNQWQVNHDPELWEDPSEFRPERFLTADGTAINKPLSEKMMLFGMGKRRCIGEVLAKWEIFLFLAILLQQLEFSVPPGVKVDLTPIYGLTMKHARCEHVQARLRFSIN

CCCCn1c(N)c(N(Cc2ccccc2OC)C(=O)c2c(CC)noc2C)c(=O)[nH]c1=O
EC50 [1]: > 53 µM (inactive)
AC50 [2]: 61.2 µM (active)
IC50 [3]: > 47.1 µM (inactive)

COc1ccc2nc3cc(Cl)ccc3c(Nc3cc(CN4CCCC4)c(O)c(CN4CCCC4)c3)c2n1
EC50 [4]: > 16 µM (not active)
IC50 [5]: 20.3 µM (active)
AC50 [6]: 3.38 µM (active)
EC50 [7]: 22 µM (active)
EC50 [8]: > 91.2 µM (inactive)
IC50 [9]: 5.61 µM (active)
EC50 [10]: 32.2 µM (active)
IC50 [11]: 10.5 µM (active)
EC50 [12]: > 3.38 µM (active)
EC50 [13]: 0.587 µM (active)
IC50 [14]: 40.5 µM (active)
AC50 [15]: < 0.351 µM (active)
AC50 [16]: 0.791 µM (active)

COC(=O)Cn1nc(-c2ccccc2)c2cc(Cl)ccc21
AC50 [17]: 9.53 µM (active)

COc1ccc(-c2cc(C(F)(F)F)nc(SCC(=O)N(C)Cc3cn(C)nc3C)n2)cc1OC
AC50 [18]: 12.7 µM (active)
AC50 [19]: 23.3 µM (active)

CN1[C@@H]2CC[C@H]1C[C@@H](OC1c3ccccc3CCc3ccccc31)C2 [DEPTROPINE]
IC50 [20]: 10 µM (inactive)
IC50 [21]: > 20 µM (inactive)
AC50 [22]: inactive
